According to US6844353B2, “Fungicidal properties of sampangine and its analogs to agriculturally important fungal plant pathogens” (The United States of America as represented by the …, priority 2003, dated 2005):
Read-outs that look alike come from different tables or passages of the source.

Assays:
Assay in all cases: 96-well microtiter plate assay, fungal growth inhibition
B. cinerea = format: cell-based, Botrytis cinerea; conditions: for inhibition at 0.3 µM / inhibition at 3 µM / inhibition at 30 µM: Botrytis cinerea, read-out: Percent inhibition−Percent Stimulation±SEM; for Percent inhibition−Percent Stimulation±SEM: B. cinerea
Excerpt: (§1) Pathogen production. Isolates of Colletotrichum acutatum Simmonds, Colletotrichum fragariae Brooks, and Colletotrichum gloeosporioides (Penz.) Penz. & Sacc. in Penz. were obtained from B. J. Smith, USDA, ARS, Small Fruit Research Station, Poplarville, Miss. Colletotrichum fragariae (isolate CF63), C. acutatum (isolate CAGoff), and C. gloeosporioides (isolate CG162) were used for all pathogen and bioautography studies. Isolate CF63 is one of the most virulent isolates at infecting strawberry plants and inducing both crown and fruit rot (Smith and Black, 1990). CF63, CAGoff, and CG162 were used as standard test isolates because of our extensive knowledge of these isolates and their known fungicide sensitivity profiles in both bioautography and microtiter formats. The three Colletotrichum species were isolated from strawberry (Fragaria x ananassa Duchesne). Botrytis cinerea Pers.: Fr, was isolated from commercial grape (Vitis vinifera L.) and Fusarium oxysporum Schlechtend: Fr from orchid (Cynoches sp.). Phomopsis viticola (Sacc.) and P. obscurans (Ellis & Everh.) Sutton were from Mike A. Ellis, Ohio State University, Wooster, Ohio. Fungi were grown on potato-dextrose agar (PDA, Difco, Detroit, Mich.) in 9 cm petri dishes and incubated in a growth chamber at 24±2° C. and under cool-white fluorescent lights ([…]·m^−2·sec^−1 light) with 12 hour photoperiod.
(§2) Inoculum preparation. Conidia were harvested from 7-10 day-old cultures by flooding plates with 5 mL of sterile distilled water and dislodging conidia by softly brushing the colonies with an L-shaped glass rod. Conidial suspensions were filtered through sterile miracloth (Calbiochem-Novabiochem Corp., La Jolla, Calif.) to remove mycelia. Conidia concentrations were determined photometrically, from a standard curve based on the percent of transmittance (% T) at 625 nm and suspensions were then adjusted with sterile distilled water to a concentration of 1.0×10^6 conidia/mL.
(§3) Microtiter assay. A standardized 96-well microtiter plate assay developed for discovery of natural product fungicidal agents was used to evaluate naturally occurring antifungal agents from Macaranga monanara. A 96-well microtiter assay was used to determine sensitivity of B. cinerea, C. acutatum, C. fragariae, C. gloeosporioides, F. oxysporum, Phomopsis viticola, and P. obscurans to the various antifungal agents in comparison with known fungicidal standards. Vinclozolin, captan, and thiabendazole, which represent three different modes of action, were used as standards in this experiment. Each fungus was challenged in a dose-response format using test compounds where the final treatment concentrations were 0.3, 3.0 and 30.0 μM. Microtiter plates (Nunc MicroWell, untreated; Roskilde, Denmark) were covered with a plastic lid and incubated in a growth chamber as described previously for fungal growth. Growth was then evaluated by measuring absorbance of each well at 620 nm using a microplate photometer (Packard Spectra Count, Packard Instrument Co., Downers Grove, Ill.). Microtiter plates (Nunc MicroWell, untreated; Roskilde, Denmark) were covered with a plastic lid and incubated in a growth chamber at 24±1° C. and 12 hour photoperiod under 60±5 μmol light. Growth was then evaluated by measuring absorbance of each well at 620 nm using a microplate photometer (Packard Spectra Count, Packard Instrument Co., Downers Grove, Ill.).
(§4) Microbioassy Experimental Design. Chemical sensitivity each of B. cinerea, C. acutatum, C. fragariae, C. gloeosporiodes, F. oxysporum, Phomopsis viticola, and P. obscurans was evaluated using 96-well plate microbioassay format. Each chemical was evaluated in duplicate at each dose (0.3, 3.0 and 30.0 μM). […]

C. gloeosporioides = format: cell-based, Colletotrichum gloeosporioides; conditions: for inhibition at 0.3 µM / inhibition at 3 µM / inhibition at 30 µM: Colletotrichum gloeosporioides, read-out: Percent inhibition−Percent Stimulation±SEM; for Percent inhibition−Percent Stimulation±SEM: C. gloeosporioides
Excerpt: as §1, §2, §3, §4

F. oxysporum = format: cell-based, Fusarium oxysporum; conditions: for inhibition at 0.3 µM / inhibition at 3 µM / inhibition at 30 µM: Fusarium oxysporum, read-out: Percent inhibition−Percent Stimulation±SEM; for Percent inhibition−Percent Stimulation±SEM: F. oxysporum
Excerpt: as §1, §2, §3, §4

C. acutatum = format: cell-based, Colletotrichum acutatum; conditions: for inhibition at 0.3 µM / inhibition at 3 µM / inhibition at 30 µM: Colletotrichum acutatum, read-out: Percent inhibition−Percent Stimulation±SEM; for Percent inhibition−Percent Stimulation±SEM: C. acutatum
Excerpt: as §1, §2, §3, §4

C. fragariae = format: cell-based, Colletotrichum fragariae; conditions: for inhibition at 0.3 µM / inhibition at 3 µM / inhibition at 30 µM: Colletotrichum fragariae, read-out: Percent inhibition−Percent Stimulation±SEM; for Percent inhibition−Percent Stimulation±SEM: C. fragariae
Excerpt: as §1, §2, §3, §4

`Cc1cc(C2CC2)nc(Nc2ccccc2)n1` [Cyprodinil] gave an inhibition at 0.3 µM (B. cinerea; 48 h) of 75.3 ± 21%, an inhibition at 3 µM (B. cinerea; 48 h) of 29.4 ± 31.3% and an inhibition at 30 µM (B. cinerea; 48 h) of 2.5 ± 31.6%. For the same molecule, the inhibition at 0.3 µM (B. cinerea; 72 h) was 61.3 ± 24.4%, the inhibition at 3 µM (B. cinerea; 72 h) was 51.3 ± 30% and the inhibition at 30 µM (B. cinerea; 72 h) was 27.3 ± 28.2%. The inhibition at 0.3 µM (C. gloeosporioides; 48 h) was 84.3 ± 2.3%, the inhibition at 3 µM (C. gloeosporioides; 48 h) was 91.3 ± 1.3% and the inhibition at 30 µM (C. gloeosporioides; 48 h) was 91.1 ± 7%. It also gave an inhibition at 0.3 µM (C. gloeosporioides; 72 h) of 55.7 ± 4.6%, an inhibition at 3 µM (C. gloeosporioides; 72 h) of 83.7 ± 1.8% and an inhibition at 30 µM (C. gloeosporioides; 72 h) of 93 ± 0.4%. The inhibition at 0.3 µM (F. oxysporum; 48 h) was -5.4 ± 4.8%, the inhibition at 3 µM (F. oxysporum; 48 h) was 16.9 ± 5.5% and the inhibition at 30 µM (F. oxysporum; 48 h) was 69.1 ± 4.6%. It also gave an inhibition at 0.3 µM (F. oxysporum; 72 h) of -5.1 ± 2.8%, an inhibition at 3 µM (F. oxysporum; 72 h) of 6.2 ± 2.5% and an inhibition at 30 µM (F. oxysporum; 72 h) of 31.3 ± 4.9%. For the same molecule, the inhibition at 0.3 µM (C. acutatum; 48 h) was 99.8 ± 0.2%, the inhibition at 3 µM (C. acutatum; 48 h) was 98.6 ± 0.6% and the inhibition at 30 µM (C. acutatum; 48 h) was 98.7 ± 0.5%. It also gave an inhibition at 0.3 µM (C. acutatum; 72 h) of 85.1 ± 4.3%, an inhibition at 3 µM (C. acutatum; 72 h) of 99.3 ± 2.2% and an inhibition at 30 µM (C. acutatum; 72 h) of 97.9 ± 0.3%. The inhibition at 0.3 µM (C. fragariae; 48 h) was 98 ± 1.6%, the inhibition at 3 µM (C. fragariae; 48 h) was 91.3 ± 1.3% and the inhibition at 30 µM (C. fragariae; 48 h) was 91.1 ± 7%. The inhibition at 0.3 µM (C. fragariae; 72 h) was 82.6 ± 6.2%, the inhibition at 3 µM (C. fragariae; 72 h) was 83.7 ± 1.8% and the inhibition at 30 µM (C. fragariae; 72 h) was 93 ± 0.4%.

With `N#CC(CCc1ccc(Cl)cc1)(Cn1cncn1)c1ccccc1` (stereo not drawn) [Fenbucanazole] the “Percent inhibition−Percent Stimulation±SEM” value (B. cinerea; 0.3 μM, 48 hrs) was −46.0 ± 34.2%, the “Percent inhibition−Percent Stimulation±SEM” value (B. cinerea; 0.3 μM, 72 hrs) was −49.6 ± 24.7% and the “Percent inhibition−Percent Stimulation±SEM” value (B. cinerea; 3.0 μM, 48 hrs) was −35.9 ± 28.3%. The “Percent inhibition−Percent Stimulation±SEM” value (B. cinerea; 3.0 μM, 72 hrs) was −47.0 ± 23.0%, the “Percent inhibition−Percent Stimulation±SEM” value (B. cinerea; 30 μM, 48 hrs) was 17.6 ± 52.2% and the “Percent inhibition−Percent Stimulation±SEM” value (B. cinerea; 30 μM, 72 hrs) was −29.9 ± 24.2%. The “Percent inhibition−Percent Stimulation±SEM” value (C. gloeosporioides; 0.3 μM, 48 hrs) was −86.1 ± 1.4%, the “Percent inhibition−Percent Stimulation±SEM” value (C. gloeosporioides; 0.3 μM, 72 hrs) was −59.1 ± 3.6% and the “Percent inhibition−Percent Stimulation±SEM” value (C. gloeosporioides; 3.0 μM, 48 hrs) was −95.0 ± 1.1%. The “Percent inhibition−Percent Stimulation±SEM” value (C. gloeosporioides; 3.0 μM, 72 hrs) was −98.1 ± 0.4%, the “Percent inhibition−Percent Stimulation±SEM” value (C. gloeosporioides; 30 μM, 48 hrs) was −99.0 ± 0.7% and the “Percent inhibition−Percent Stimulation±SEM” value (C. gloeosporioides; 30 μM, 72 hrs) was −99.6 ± 0.2%. For the same molecule, the “Percent inhibition−Percent Stimulation±SEM” value (F. oxysporum; 0.3 μM, 48 hrs) was −15.3 ± 2.6%, the “Percent inhibition−Percent Stimulation±SEM” value (F. oxysporum; 0.3 μM, 72 hrs) was −10.4 ± 2.7% and the “Percent inhibition−Percent Stimulation±SEM” value (F. oxysporum; 3.0 μM, 48 hrs) was −33.1 ± 4.2%. For the same molecule, the “Percent inhibition−Percent Stimulation±SEM” value (F. oxysporum; 3.0 μM, 72 hrs) was −29.3 ± 2.6%, the “Percent inhibition−Percent Stimulation±SEM” value (F. oxysporum; 30 μM, 48 hrs) was −45.5 ± 3.4% and the “Percent inhibition−Percent Stimulation±SEM” value (F. oxysporum; 30 μM, 72 hrs) was −44.5 ± 2.5%. For the same molecule, the “Percent inhibition−Percent Stimulation±SEM” value (C. acutatum; 0.3 μM, 48 hrs) was 13.0 ± 5.8%, the “Percent inhibition−Percent Stimulation±SEM” value (C. acutatum; 0.3 μM, 72 hrs) was 16.3 ± 5.4% and the “Percent inhibition−Percent Stimulation±SEM” value (C. acutatum; 3.0 μM, 48 hrs) was −3.8 ± 4.8%. The “Percent inhibition−Percent Stimulation±SEM” value (C. acutatum; 3.0 μM, 72 hrs) was −89.9 ± 6.8%, the “Percent inhibition−Percent Stimulation±SEM” value (C. acutatum; 30 μM, 48 hrs) was −39.2 ± 3.3% and the “Percent inhibition−Percent Stimulation±SEM” value (C. acutatum; 30 μM, 72 hrs) was −21.7 ± 5.8%. The “Percent inhibition−Percent Stimulation±SEM” value (C. fragariae; 0.3 μM, 48 hrs) was −26.8 ± 14.1%, the “Percent inhibition−Percent Stimulation±SEM” value (C. fragariae; 0.3 μM, 72 hrs) was 19.0 ± 7.7% and the “Percent inhibition−Percent Stimulation±SEM” value (C. fragariae; 3.0 μM, 48 hrs) was −37.0 ± 15.3%. The “Percent inhibition−Percent Stimulation±SEM” value (C. fragariae; 3.0 μM, 72 hrs) was 4.7 ± 4.2%, the “Percent inhibition−Percent Stimulation±SEM” value (C. fragariae; 30 μM, 48 hrs) was −99.3 ± 1.1% and the “Percent inhibition−Percent Stimulation±SEM” value (C. fragariae; 30 μM, 72 hrs) was −97.7 ± 0.6%.

`CC1(C(=O)Nc2ccc(O)c(Cl)c2Cl)CCCCC1` [Fenhexamid] was tested, and the inhibition at 0.3 µM (B. cinerea; 48 h) was 82.9 ± 31.5%, the inhibition at 3 µM (B. cinerea; 48 h) was 34.2 ± 29.1% and the inhibition at 30 µM (B. cinerea; 48 h) was 49.2 ± 32.1%. The inhibition at 0.3 µM (B. cinerea; 72 h) was 71.4 ± 24.7%, the inhibition at 3 µM (B. cinerea; 72 h) was 42.7 ± 20.6% and the inhibition at 30 µM (B. cinerea; 72 h) was 40.9 ± 22.6%. It also gave an inhibition at 0.3 µM (C. gloeosporioides; 48 h) of -21.6 ± 9%, an inhibition at 3 µM (C. gloeosporioides; 48 h) of -32.5 ± 6.4% and an inhibition at 30 µM (C. gloeosporioides; 48 h) of -0.3 ± 3%. It also gave an inhibition at 0.3 µM (C. gloeosporioides; 72 h) of -11.3 ± 5.5%, an inhibition at 3 µM (C. gloeosporioides; 72 h) of -16 ± 2% and an inhibition at 30 µM (C. gloeosporioides; 72 h) of 6.5 ± 4.2%. For the same molecule, the inhibition at 0.3 µM (F. oxysporum; 48 h) was 3 ± 4.4%, the inhibition at 3 µM (F. oxysporum; 48 h) was 15.3 ± 1.7% and the inhibition at 30 µM (F. oxysporum; 48 h) was 28.5 ± 1.3%. The inhibition at 0.3 µM (F. oxysporum; 72 h) was -0.1 ± 2.8%, the inhibition at 3 µM (F. oxysporum; 72 h) was 3.7 ± 2.6% and the inhibition at 30 µM (F. oxysporum; 72 h) was 21.2 ± 2.1%. It also gave an inhibition at 0.3 µM (C. acutatum; 48 h) of -21.6 ± 6.7%, an inhibition at 3 µM (C. acutatum; 48 h) of -6.5 ± 4.9% and an inhibition at 30 µM (C. acutatum; 48 h) of 13.8 ± 5.3%. It also gave an inhibition at 0.3 µM (C. acutatum; 72 h) of -20.4 ± 5.6%, an inhibition at 3 µM (C. acutatum; 72 h) of -21.8 ± 4.3% and an inhibition at 30 µM (C. acutatum; 72 h) of 1.5 ± 6.7%. It also gave an inhibition at 0.3 µM (C. fragariae; 48 h) of -30.2 ± 10%, an inhibition at 3 µM (C. fragariae; 48 h) of -13.6 ± 6.3% and an inhibition at 30 µM (C. fragariae; 48 h) of 19.9 ± 3.4%. For the same molecule, the inhibition at 0.3 µM (C. fragariae; 72 h) was -12 ± 6.7%, the inhibition at 3 µM (C. fragariae; 72 h) was -9.9 ± 4.3% and the inhibition at 30 µM (C. fragariae; 72 h) was 19.5 ± 5.4%.
